Experimental data reported in PMC9413271, “Anti-Obesity Evaluation of Averrhoa carambola L. Leaves and Assessment of Its Polyphenols as Potential α-Glucosidase Inhibitors” (Molecules, 2022).
“Also recorded” adds a separate entry of the source.

System: α-glucosidase
Experiment: In vitro α-glucosidase inhibitory assay
Assay type: biochemical
Design: key to IC50 (α-glucosidase inhibition), dash = inactive: (-) indicates inactive compounds
Settings: for α-glucosidase inhibitory activity (in words): in vitro; for IC50 (α-glucosidase inhibition), dash = inactive / IC50: sucrose substrate, 37 °C, 30 min, n = 3; for IC50: read-out: IC50 (α-glucosidase inhibition)
Experimental: The assay of α-glucosidase inhibitory activity of compounds was adopted from. Briefly, 100 μL of DMSO and 100 μL of α-glucosidase enzyme (5 U/mL in 0.15 M HEPES buffer) were added to 100 μL substrate (0.1 M sucrose solution dissolved into 0.15 M HEPES buffer). The mixture was vortexed for 5 sec and then incubated at 37 °C for 30 min to allow for enzymatic reaction. After incubation, the reaction was stopped by heating at 100 °C for 10 min in a block incubator. The formation of glucose was determined by means of glucose oxidase method, using a BF-5S Biosensor (Oji Scientific Instruments, Hyogo, Japan). Mathematically, α-glucosidase inhibitory activity of each sample was calculated according to this equation: (Average value of control (Ac) − average value of the sample (As))/Ac × 100.
The IC50 values were calculated from plots of log concentration of inhibitor concentration against the percentage inhibition curves, using Microsoft Excel 2016. The data were expressed as mean ± standard deviation (SD) of at least three independent experiments (n = 3).

CC(=O)OC1C(C)OC(c2c(O)cc(OC3OC(CO)C(O)C3OC3OC(C)C(O)C(O)C3O)c(C(=O)CCc3ccc(O)cc3)c2O)C(OC(=O)C=Cc2ccccc2)C1OC1OC(C)C(O)C(O)C1O [Compound 8, phloretin 3′-C-(2-O-(E)-cinnamoyl-3-O-β-D-fucopyranosyl-4-O-acetyl)-β-D-fucopyranosyl-6′-O-β-D fucopyranosyl-(1/2)-α-L arabinofuranoside]
α-glucosidase inhibitory activity (in words): inactive
IC50 (α-glucosidase inhibition), dash = inactive: -

CC1OC(OC2C(Oc3cc(O)c(C4OC(C)C(O)C(O)C4OC(=O)C=Cc4ccccc4)c(O)c3C(=O)CCc3ccc(O)cc3)OC(CO)C2O)C(O)C(O)C1O (centres unmarked) [Compound 9, carambolaside I]
α-glucosidase inhibitory activity (in words): inactive
IC50 (α-glucosidase inhibition), dash = inactive: -

C[C@H]1O[C@@H](Oc2cc3oc(-c4ccc(O)cc4)cc(=O)c3c(O)c2[C@H]2C[C@@H](O)[C@@H](O)[C@@H](CO)O2)[C@H](O)[C@@H](O)[C@@H]1O [Compound 1, apigenin 6-C-(2-deoxy-β-D-galactopyranoside)-7-O-β-D-quinovopyranoside]
IC50: 613 µM

CC1OC(OC2C(Oc3cc(O)c(C4OC(C)C(O)C(OC5OC(C)C(O)C(O)C5O)C4OC(=O)C=Cc4ccccc4)c(O)c3C(=O)CCc3ccc(O)cc3)OC(CO)C2O)C(O)C(O)C1O (centres unmarked) [Compound 7, carambolaside J]
α-glucosidase inhibitory activity (in words): inactive
IC50 (α-glucosidase inhibition), dash = inactive: -

O=C(CCc1ccc(O)cc1)c1c(O)cc(O)cc1O [Phloretin, reference compound]
IC50: 110.4 ± 0.06 µM

CC1OC(OC2C(c3c(O)cc4oc(-c5ccc(O)c(O)c5)cc(=O)c4c3O)OC(C)C(O)C2O)C(O)C(O)C1O [Compound 2, luteolin 6-C-α-L-rhamnopyranosyl-(1-2)-β-D-fucopyranoside]
α-glucosidase inhibitory activity (in words): highest inhibitory activity among all isolated flavone glycosides; also recorded: Potent inhibition
IC50: 328 µM

O=c1cc(-c2ccc(O)c(O)c2)oc2cc(O)cc(O)c12 [Luteolin, reference compound]
IC50: 48.2 ± 0.02 µM

O=C(CCc1ccc(O)cc1)c1c(O)cc(O)cc1O[C@@H]1O[C@H](CO)[C@@H](O)[C@H](O)[C@H]1O [Phloridzin, phloretin-2′-glucose, reference compound]
α-glucosidase inhibitory activity (in words): moderate inhibitory activity
IC50: 853.1 ± 0.02 µM

CC1OC(OC2C(Oc3cc(O)c(C4OC(C)C(O)C(O)C4O)c(O)c3C(=O)CCc3ccc(O)cc3)OC(CO)C2O)C(O)C(O)C1O (centres unmarked) [Compound 6, carambolaside Ia]
α-glucosidase inhibitory activity (in words): inactive
IC50 (α-glucosidase inhibition), dash = inactive: -

CC1OC(c2c(O)cc(OC3OC(CO)C(O)C3O)c(C(=O)CCc3ccc(O)cc3)c2O)C(O)C(O)C1OC1OC(CO)C(O)C(O)C1O (centres unmarked) [Compound 5, carambolaside M]
α-glucosidase inhibitory activity (in words): inactive
IC50 (α-glucosidase inhibition), dash = inactive: -

CC1OC(OC2C(c3c(O)cc4oc(-c5ccc(O)cc5)cc(=O)c4c3O)OC(C)C(O)C2O)C(O)C(O)C1O [Compound 4, apigenin 6-C-α-L-rhamnopyranosyl-(1-2)-β-L-fucopyranoside]
α-glucosidase inhibitory activity (in words): Potent inhibition
IC50: 390 µM

O=c1cc(-c2ccc(O)cc2)oc2cc(O)c(C3OC(CO)C(O)C(O)C3O)c(O)c12 [Compound 3, apigenin 6-C-β-D-galactopyranoside]
α-glucosidase inhibitory activity (in words): Potent inhibition
IC50: 439 µM

CC(=O)OC1C(C)OC(c2c(O)cc(OC3OC(CO)C(O)C3OC3OC(C)C(O)C(O)C3O)c(C(=O)CCc3ccc(O)cc3)c2O)C(OC(=O)C=Cc2ccc(O)cc2)C1OC1OC(C)C(O)C(O)C1O (centres unmarked) [Compound 11, Mix of 4″-O-acetyl-carambolaside P and 4″-O-acetyl-carambolaside O]
α-glucosidase inhibitory activity (in words): inactive
IC50 (α-glucosidase inhibition), dash = inactive: -

O=c1cc(-c2ccc(O)cc2)oc2cc(O)cc(O)c12 [Apigenin, reference compound]
IC50: 85.6 ± 0.01 µM

CC1OC(OC2C(Oc3cc(O)c(C4OC(C)C(O)C(O)C4OC(=O)C=Cc4ccc(O)cc4)c(O)c3C(=O)CCc3ccc(O)cc3)OC(CO)C2O)C(O)C(O)C1O (centres unmarked) [Compound 12, carambolaside Q]
α-glucosidase inhibitory activity (in words): relatively strong activity; also recorded: Potent inhibition
IC50: 323.6 ± 0.06 µM
